Measured values reported in patent US6403575B1, “3-Pyridyl enantiomers and their use as analgesics” (Abbott Laboratories, priority 1996, dated 2002).
Counter-ions that a name gives are not always drawn. Like-named read-outs stand apart in the source and are kept apart here.

What was measured:
[1] = biological target: T1, neuronal nicotinic acetylcholine receptors (Rattus norvegicus, UniProt P09483+P12390); assay: [3H]-cytisine binding to neuronal nicotinic acetylcholine receptors, whole rat brain membranes
T1 construct: crude synaptic membrane preparations from whole rat brain; from tissue; host or cells: whole rat brain, crude synaptic membranes
Description: Protocol for Determination of Nicotinic Acetylcholine Channel Receptor Binding Potencies of Ligands
Binding of [^3H]-cytisine ([^3H]-CYT) to neuronal nicotinic acetylcholine receptors was accomplished using crude synaptic membrane preparations from whole rat brain (Pabreza et al., Molecular Pharmacol., 1990, 39:9). Washed membranes were stored at −80° C. prior to use. Frozen aliquots were slowly thawed and resuspended in 20 volumes of buffer (containing: 120 mM NaCl, 5 mM KCl, 2 mM MgCl2, 2 mM CaCl2 and 50 mM Tris-Cl, pH 7.4 @4° C.). After centrifuging at 20,000×g for 15 minutes, the pellets were resuspended in 30 volumes of buffer. Homogenate (containing 125-150 μg protein) was added to triplicate tubes containing concentrations of test compound and [^3H]-CYT (1.25 nM) in a final volume of 500 μL. Samples were incubated for 60 minutes at 4° C., then rapidly filtered through Whatman GF/B filters presoaked in 0.5% polyethyleneimine using 3×4 mL of ice-cold buffer. The filters are counted in 4 mL of Ecolume® (ICN). Nonspecific binding was determined in the presence of 10 μM (−)-nicotine and values were expressed as a percentage of total binding.

mice = assay: Mouse Hot Plate Paradigm; assay type: in vivo; design: key to MED Hot plate model (μmol/kg, i.p.): NS = no significant effect observed relative to saline controls at the doses tested; conditions: 30 minutes prior to testing, 55° C.; for minimal effective dose: ip, 0.5 h, i.p., read-out: MED Hot plate model (μmol/kg, i.p.)
[2] = dog, in vivo; for AUD0. / Cmax / Tmax / t½: po; for Cmax / Tmax / t½: 200 nmol/kg
Description: Beagle dogs were fasted overnight prior to dosing but were permitted free access to water. Each of the prodrugs was administered to a group of three animals at a dose of 200 nmol/kg. The formulation was adminstered by oral gavage. The prodrugs were prepared as 200 nmol/ml (1 ml/kg) solutions in normal saline. Blood samples from a jugular vein of each dog prior to dosing and 0.17, 0.33, 0.5, 0.75, 1, 1.5, 2, 3, 4, 6 and 8 hours after drug administration.

[3] = [3H]-cytisine 1.25 nM, whole rat brain membranes, read-out: [3H] CYT Ki

T1 sequence (P09483 31-630): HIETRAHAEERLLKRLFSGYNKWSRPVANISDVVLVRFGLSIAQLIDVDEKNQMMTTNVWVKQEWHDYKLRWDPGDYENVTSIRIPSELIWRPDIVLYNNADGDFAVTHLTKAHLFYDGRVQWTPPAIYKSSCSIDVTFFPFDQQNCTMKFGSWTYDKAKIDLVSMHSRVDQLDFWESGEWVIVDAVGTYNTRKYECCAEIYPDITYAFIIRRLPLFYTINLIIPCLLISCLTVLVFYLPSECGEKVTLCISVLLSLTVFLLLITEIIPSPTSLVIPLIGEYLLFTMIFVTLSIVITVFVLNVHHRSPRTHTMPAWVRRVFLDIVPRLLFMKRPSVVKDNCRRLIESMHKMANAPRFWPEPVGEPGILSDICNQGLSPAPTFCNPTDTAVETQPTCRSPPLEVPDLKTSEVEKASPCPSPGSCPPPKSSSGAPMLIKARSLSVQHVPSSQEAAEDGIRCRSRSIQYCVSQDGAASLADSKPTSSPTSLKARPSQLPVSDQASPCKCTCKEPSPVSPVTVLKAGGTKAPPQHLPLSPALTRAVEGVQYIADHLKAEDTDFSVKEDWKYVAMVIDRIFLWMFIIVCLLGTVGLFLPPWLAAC
T1 sequence (P12390 25-500): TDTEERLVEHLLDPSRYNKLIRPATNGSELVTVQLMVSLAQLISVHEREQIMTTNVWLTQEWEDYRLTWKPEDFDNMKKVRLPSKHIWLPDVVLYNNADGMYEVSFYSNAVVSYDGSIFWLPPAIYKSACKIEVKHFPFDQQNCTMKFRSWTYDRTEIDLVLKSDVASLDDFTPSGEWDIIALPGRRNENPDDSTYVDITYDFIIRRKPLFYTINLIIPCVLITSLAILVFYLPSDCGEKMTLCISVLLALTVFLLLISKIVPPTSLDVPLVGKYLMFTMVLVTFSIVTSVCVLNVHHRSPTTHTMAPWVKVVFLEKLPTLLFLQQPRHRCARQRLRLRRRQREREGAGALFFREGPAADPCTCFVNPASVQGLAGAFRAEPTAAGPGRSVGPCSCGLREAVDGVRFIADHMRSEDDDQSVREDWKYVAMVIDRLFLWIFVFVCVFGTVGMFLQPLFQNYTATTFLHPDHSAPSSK

Structure (SMILES): Clc1cncc(OC[C@@H]2CCN2)c1 [Example 21, 5-((2S)-Azetidinylmethyloxy)-3-chloropyridine dihydrochloride]
- Ki [1, 3]: 0.04 nM
- MED Hot plate model (μmol/kg, i.p.) (mice): NS

Structure (SMILES): Clc1ncccc1OC[C@@H]1CCN1 [Example 121, 2-Chloro-3-(2-(S)-azetidinylmethoxy)pyridine hydrochloride]
- Ki [1, 3]: 2.3 nM

Structure (SMILES): C=Cc1cncc(OC[C@@H]2CCN2)c1 [Example 22, 5-Vinyl-3-((2S)-Azetidinylmethyloxy)lpyridine dihydrochloride]
- Ki [1, 3]: 0.97 nM

Structure (SMILES): CN1CC[C@H]1COc1ccc(C(F)F)nc1 [Example 113, 6-Difluoromethyl-3-((1-methyl-2-(S)-azetidinyl)methoxy)pyridine citrate]
- Ki [1, 3]: 0.17 nM

Structure (SMILES): Cc1ccc(OC[C@@H]2CCN2)c(F)n1 [Example 117, 2-Fluoro-6-methyl-3-(2-(S)-azetidinylmethoxy)pyridine tosylate]
- Ki [1, 3]: 0.17 nM

Structure (SMILES): Cl.Cl.c1cncc(OC[C@H]2CCN2)c1 [Example 6, (R)-3-(2-Azetidinylmethyloxy)pyridine dihydrochloride]
- Ki [1]: 0.04 nM
- MED Hot plate model (μmol/kg, i.p.) (mice): NS

Structure (SMILES): Brc1ccc(OC[C@H]2CCN2)cn1 [Example 128, 5-(2-(R)-azetidinylmethoxy)-2-bromo-pyridine tosylate]
- Ki [1, 3]: 0.17 nM

Structure (SMILES): Cc1ccc(OC[C@H]2CCN2)c(F)n1 [Example 118, 2-Fluoro-6-methyl-3-(2-(R)-azetidinylmethoxy)pyridine tosylate]
- Ki [1, 3]: 4.8 nM

Structure (SMILES): Cc1ccc(OC[C@H]2CCN2)cn1 [Example 115, 6-Methyl-3-(2-(R)-azetidinylmethoxy)pyridine]
- Ki [1, 3]: 0.07 nM

Structure (SMILES): Cc1cc(OC[C@@H]2CCN2)cnc1Cl [Example 25, 2-Chloro-3-methyl-5-(2-(S)-azetidinylmethoxy)pyridine citrate]
- Ki [1, 3]: 0.05 nM
- minimal effective dose (mice): 0.062 µmol/kg

Structure (SMILES): COC(=O)c1ccc(C(=O)N2CC[C@@H]2COc2ccc(F)nc2)cc1 [4-MeO2CC6H4CO]
- F* (%) efficiency of conversion [2]: 61.2%
- AUD0. [2]: 42.37 ng·h/mL
- Cmax [2]: 10.31 ng/mL
- Tmax [2]: 0.8 h
- t½ [2]: 1.8 h

Structure (SMILES): O=C(c1ccc([N+](=O)[O-])cc1)N1CC[C@@H]1COc1ccc(F)nc1 [Example 4-NO2C6H4CO]
- F* (%) efficiency of conversion [2]: 27.1%
- AUD0. [2]: 18.76 ng·h/mL
- Cmax [2]: 6.01 ng/mL
- Tmax [2]: 0.8 h
- t½ [2]: 1.9 h

Structure (SMILES): C#Cc1cc(OC[C@@H]2CCN2)cnc1Cl [Example 30, 2-Chloro-3-ethynyl-5-((2S)-azetidinylmethoxy)pyridine hydrochloride]
- Ki [1, 3]: 0.04 nM
- minimal effective dose (mice): 6.2 µmol/kg

Structure (SMILES): CCc1cc(OC[C@@H]2CCN2)cnc1Cl [Example 27, 2-Chloro-3-ethyl-5-((2S)-azetidinylmethoxy)pyridine hydrochloride]
- Ki [1, 3]: 0.04 nM
- MED Hot plate model (μmol/kg, i.p.) (mice): NS

Structure (SMILES): Cc1ncc(OC[C@@H]2CCN2)cc1Br [Example 34, 5-Bromo-6-methyl-3-((2S)-azetidinylmethoxy)pyridine dihydrochloride]
- Ki [1, 3]: 0.02 nM
- minimal effective dose (mice): 0.62 µmol/kg

Structure (SMILES): Cc1ncc(OC[C@H]2CCN2)cc1Br [Example 124, 3-(2-(R)-azetidinylmethoxy)-5-bromo-6-methylpyridine tosylate]
- Ki [1, 3]: 0.03 nM

Structure (SMILES): COc1ccc(C(=O)N2CC[C@@H]2COc2ccc(F)nc2)cc1 [Example 4-MeOC6H4CO]
- F* (%) efficiency of conversion [2]: 37.7%
- AUD0. [2]: 26.09 ng·h/mL
- Cmax [2]: 7.43 ng/mL
- Tmax [2]: 0.8 h
- t½ [2]: 2.0 h

Structure (SMILES): C=Cc1cc(OC[C@@H]2CCN2)cnc1Cl [Example 26, 2-Chloro-3-vinyl-5-((2S)-azetidinylmethoxy)pyridine hydrochloride]
- Ki [1, 3]: 0.24 nM
- minimal effective dose (mice): 1.9 µmol/kg

Structure (SMILES): C=Cc1cc(OC[C@@H]2CCN2)cnc1F [Example 131, 5-(2-(S)-Azetidinylmethoxy)-3-ethenyl-2-fluoropyridine tosylate]
- Ki [1, 3]: 0.13 nM

Structure (SMILES): CCCCc1cc(OC[C@@H]2CCN2)cnc1Cl [Example 29, 3-Butyl-2-chloro-5-((2S)-azetidinylmethoxy)pyridine hydrochloride]
- Ki [1, 3]: 0.16 nM
- MED Hot plate model (μmol/kg, i.p.) (mice): NS

Structure (SMILES): Fc1ncc(OC[C@H]2CCN2)cc1Br [Example 125, 5-bromo-6-fluoro-3-(2-(R)-azetidinylmethoxy)pyridine]
- Ki [1]: 0.04 nM

Structure (SMILES): O=C(c1ccccc1)N1CC[C@@H]1COc1ccc(F)nc1 [PhCO]
- F* (%) efficiency of conversion [2]: 27.3%
- AUD0. [2]: 18.89 ng·h/mL
- Cmax [2]: 6.31 ng/mL
- Tmax [2]: 0.6 h
- t½ [2]: 1.8 h

Structure (SMILES): Cc1cc(OC[C@@H]2CCN2)cnc1F [Example 32, 5-((2S)-azetidinylmethoxy)-3-methyl-2-fluoropyridine benzoate]
- Ki [1, 3]: 0.1 nM
- MED Hot plate model (μmol/kg, i.p.) (mice): NS

Structure (SMILES): Fc1ncc(OCC2CCN2)cc1Cl (stereo not shown) [Example 33, 5-((29)-azetidinylmethoxy)-3-chloro-2-fluoropyridine tosylate]
- Ki [1, 3]: 0.04 nM

Structure (SMILES): Cc1ccc(C(=O)N2CC[C@@H]2COc2ccc(F)nc2)cc1 [Example 4-MeC6H4CO]
- F* (%) efficiency of conversion [2]: 43.1%
- AUD0. [2]: 29.85 ng·h/mL
- Cmax [2]: 7.05 ng/mL
- Tmax [2]: 0.8 h
- t½ [2]: 2.4 h

Structure (SMILES): CCc1cncc(OC[C@@H]2CCN2)c1 [Example 23, 5-Ethyl-3-((2S)-Azetidinylmethyloxy)lpyridine hydrochloride]
- Ki [1, 3]: 0.11 nM
- MED Hot plate model (μmol/kg, i.p.) (mice): NS

Structure (SMILES): C=Cc1cc(OC[C@H]2CCN2)cnc1F [Example 129, 5-((2R)-Azetidinylmethoxy)-2-fluoro-3-vinylpyridine tosylate]
- Ki [1, 3]: 0.09 nM

Structure (SMILES): Clc1cncc(OC[C@H]2CCN2)c1 [Example 114, 3-(2-(R)-Azetidinylmethoxy)-5-chloropyridine tosylate]
- Ki [1, 3]: 0.12 nM

Structure (SMILES): C=CCc1cncc(OC[C@@H]2CCN2)c1 [Example 130, 3-(2-(S)-azetidinylmethoxy)-5-(3-propenyl)pyridine hydrochloride]
- Ki [1, 3]: 0.04 nM

Structure (SMILES): CCCc1cc(OC[C@@H]2CCN2)cnc1Cl [Example 28, 2-Chloro-3-propyl-5-((2S)-azetidinylmethoxy)pyridine hydrochloride]
- Ki [1, 3]: 0.03 nM
- MED Hot plate model (μmol/kg, i.p.) (mice): NS

Structure (SMILES): Cc1cc(OC[C@H]2CCN2)cnc1Cl [Example 127, 2-Chloro-3-methyl-5-(2-(R)--azetidinylmethoxy)pyridine citrate]
- Ki [1]: 0.06 nM

Structure (SMILES): O=C(c1ccc(Cl)cc1)N1CC[C@@H]1COc1ccc(F)nc1 [Example 4-ClC6H4CO]
- F* (%) efficiency of conversion [2]: 26.9%
- AUD0. [2]: 18.61 ng·h/mL
- Cmax [2]: 4.54 ng/mL
- Tmax [2]: 0.8 h
- t½ [2]: 2.5 h

Structure (SMILES): Cc1ccc(OC[C@@H]2CCN2)cn1 [Example 20, 5-((2S)-Azetidinylmethyloxy)-2-methylpyridine dihydrochloride]
- Ki [1, 3]: 0.06 nM
- minimal effective dose (mice): 0.62 µmol/kg

Structure (SMILES): CCc1cc(OC[C@@H]2CCN2)cnc1C [Example 36, 6-Ethyl-6-methyl-3-((2S)-azetidinylmethoxy)pyridine hydrochloride]
- Ki [1, 3]: 0.04 nM
- MED Hot plate model (μmol/kg, i.p.) (mice): NS

Structure (SMILES): Fc1ccc(OC[C@@H]2CCN2)c(F)n1 [Example 116, 2.6-Difluoro-3-(2-(S)-azetidinylmethoxy)pyridine tosylate]
- Ki [1, 3]: 0.34 nM

Structure (SMILES): Fc1ncc(OC[C@@H]2CCN2)cc1Br [Example 31, 5-((2S)-azetidinylmethoxy)-3-bromo-2-fluoropyridine dibenzoic acid salt]
- Ki [1, 3]: 0.03 nM
- minimal effective dose (mice): 6.2 µmol/kg

Structure (SMILES): C=Cc1cc(OC[C@@H]2CCN2)cnc1C [Example 35, 6-Methyl-5-vinyl-3-((2S)-azetidinylmethoxy)pyridine hydrochloride]
- Ki [1, 3]: 0.22 nM
- MED Hot plate model (μmol/kg, i.p.) (mice): NS

Structure (SMILES): O=C(c1ccc(F)cc1)N1CC[C@@H]1COc1ccc(F)nc1 [Example 4-FC6H4CO]
- F* (%) efficiency of conversion [2]: 13.5%
- AUD0. [2]: 9.35 ng·h/mL
- Cmax [2]: 3.25 ng/mL
- Tmax [2]: 0.8 h
- t½ [2]: 1.6 h

Structure (SMILES): CCOc1cncc(OC[C@@H]2CCN2)c1 [Example 120, 5-Ethoxy-3-(2-(S)-azetidinylmethoxy)pyridine tosylate]
- Ki [1, 3]: 0.04 nM

Structure (SMILES): CCc1cc(OC[C@@H]2CCN2)cnc1F [Example 126, 5-ethyl-6-fluoro-3-(2-(S)-azetidinylmethoxy)pyridine]
- Ki [1, 3]: 0.07 nM

Structure (SMILES): Clc1ncccc1OC[C@H]1CCN1 [Example 97, 2-Chloro-3-(2-(R)-azetidinylmethoxy)pyridine tosylate]
- Ki [1, 3]: 85 nM

Structure (SMILES): N#Cc1ccc(OC[C@@H]2CCN2)cn1 [Example 123, 6-Cyano-3-(2(S)-azetidinylmethoxy)pyridine hydrochloride]
- Ki [1, 3]: 1.9 nM
